Read-outs that look alike come from different tables or passages of the source.
Key:
[1] = molecular target: T1, butyrylcholinesterase (BChE, equine serum) (Equus caballus, UniProt P81908); assay: Ellman's assay, butyrylcholinesterase inhibition; type: biochemical; details: for Grade of inhibition in% BChE: mean ± SE; for selectivity F (percent inhibition for AChE divided by percent inhibition for BChE): towards BChE
T1 construct: Butyrylcholinesterase (from equine serum) was purchased from Fluka; purchased Fluka; host or cells: equine serum
From the text: (§1) In this study, carboxamides with different triterpenoic backbones (ursolic, oleanolic, maslinic, betulinic, and platanic acids), and various amine residues (Scheme 1), were investigated.
(§2) A TECAN SpectraFluorPlus working in the kinetic mode and measuring the absorbance at λ = 415 nm was used for the enzymatic studies. Acetylcholinesterase (from Electrophorus electricus), 5,5′-dithiobis-(2-nitrobenzoic acid) (DTNB) and acetylthiocholine iodide were purchased from Sigma. Butyrylcholinesterase (from equine serum) was purchased from Fluka. Preparation of the solutions, assay procedure, as well as molecular modeling conditions can be found in the Supplementary Materials.
(§3) 3.1 Preparation of the solutions
(§4) Preparation of 50 mM Tris-HCl buffer solutions: Tris(hydroxymethyl)-aminomethane (606 mg) was dissolved in bidestilled water (100 mL) and adjusted with HCl to a pH of 8.0 ± 0.1. Buffers were freshly prepared and stored in the refrigerator. AChE solution 2.005 U/mL: the enzyme (271 U/mg, 0.037 mg) was dissolved in freshly prepared buffer pH 8.0 (5 mL) containing NaN3 (0.98 mg). BChE solution 2.040 U/mL: the enzyme (7.54 U/mg, 1.353 mg) was dissolved in freshly prepared buffer pH 8.0 (5 mL) containing NaN3 (0.98 mg). DTNB solution 3 mM: DTNB (23.8 mg) was dissolved in freshly prepared buffer pH 8.0 (20 mL) containing NaCl (116.8 mg) and MgCl2 (38.0 mg). ATChI solution 15 mM:
(§5) ATChI (43.4 mg) was dissolved in bidestilled water (10 mL). All solutions were stored in Eppendorf caps in the refrigerator or in the freezer, if necessary. The pure compounds were […]
(§6) dissolved in bidistilled water. The final concentrations for the enzymatic assay were obtained by diluting the stock solution with bidistilled water.
(§7) A mixture of the DTNB solution (125 µL), enzyme solution (25 µL) and compounds solutions (25 µL, 3 different concentrations and once blank water) was prepared and incubated at 30 °C for 20 min. The substrate (25 µL, 4 different concentrations) was added to start the enzymatic reaction. The absorbance data (l = 415 nm) was recorded under a controlled temperature of 30 °C for 30 min at 1 min intervals. The substrate concentrations in the test were as follows: […]
(§8) determined as the quotient of the slopes (compound divided by blank) of the linear ranges.
(§9) The used substrate concentration was 0.625 mM. The absorbance data was recorded under a controlled temperature of 30 °C for 10 min.

[2] = molecular target: acetylcholinesterase (AChE, electric eel) (Electrophorus electricus, UniProt O42275)
From the text: as §1, §2, §3, §4, §5, §6, §7, §8, §9

[3] = BChE, equine serum, Ellman's assay
[4] = BChE, equine serum, Ellman's assay, read-out: Ki (competitive inhibition)
[5] = experimental Ki restated in docking Table 3, unit inferred, read-out: Ki

Sequence of acetylcholinesterase (AChE, electric eel) (O42275 24-633): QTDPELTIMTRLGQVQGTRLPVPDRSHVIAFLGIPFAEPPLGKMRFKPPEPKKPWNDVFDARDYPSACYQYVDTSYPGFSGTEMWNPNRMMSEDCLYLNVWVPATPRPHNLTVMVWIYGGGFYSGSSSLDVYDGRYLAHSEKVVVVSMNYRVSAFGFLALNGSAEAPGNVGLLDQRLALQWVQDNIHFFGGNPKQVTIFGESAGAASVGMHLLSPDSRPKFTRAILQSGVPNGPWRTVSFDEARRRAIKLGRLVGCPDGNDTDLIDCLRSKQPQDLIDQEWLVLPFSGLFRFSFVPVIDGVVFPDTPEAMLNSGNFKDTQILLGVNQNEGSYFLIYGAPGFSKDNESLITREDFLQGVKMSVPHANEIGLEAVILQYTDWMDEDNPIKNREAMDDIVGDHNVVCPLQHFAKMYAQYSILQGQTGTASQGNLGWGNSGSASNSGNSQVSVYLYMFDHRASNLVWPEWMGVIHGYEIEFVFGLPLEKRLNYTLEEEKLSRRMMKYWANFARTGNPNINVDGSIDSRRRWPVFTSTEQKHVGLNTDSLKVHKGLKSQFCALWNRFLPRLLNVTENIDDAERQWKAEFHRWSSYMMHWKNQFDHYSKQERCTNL
T1 sequence (P81908 whole entry): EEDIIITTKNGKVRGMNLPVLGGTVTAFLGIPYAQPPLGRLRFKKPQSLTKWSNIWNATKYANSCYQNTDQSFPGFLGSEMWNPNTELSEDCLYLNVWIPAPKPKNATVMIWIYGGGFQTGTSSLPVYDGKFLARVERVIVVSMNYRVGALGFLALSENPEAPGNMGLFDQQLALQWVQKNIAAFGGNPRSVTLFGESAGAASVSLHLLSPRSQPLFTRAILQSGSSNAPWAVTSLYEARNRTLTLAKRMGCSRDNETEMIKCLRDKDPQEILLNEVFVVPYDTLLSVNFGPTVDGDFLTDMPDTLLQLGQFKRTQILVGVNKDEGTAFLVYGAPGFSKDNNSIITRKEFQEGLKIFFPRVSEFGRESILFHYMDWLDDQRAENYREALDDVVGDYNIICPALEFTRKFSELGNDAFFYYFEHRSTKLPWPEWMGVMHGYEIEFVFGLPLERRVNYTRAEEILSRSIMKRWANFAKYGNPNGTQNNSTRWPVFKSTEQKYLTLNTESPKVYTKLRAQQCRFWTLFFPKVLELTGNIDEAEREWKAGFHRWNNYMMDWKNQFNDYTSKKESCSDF

SMILES	Grade of inhibition in% BChE ([1]; c = 10 µM)	Grade of inhibition in% AChE ([2]; c = 10 µM, mean ± SE)	Grade of inhibition in% BChE ([1]; c = 30 µM)	Grade of inhibition in% AChE ([2]; c = 30 µM, mean ± SE)	Type of Inhibition ([1]; BChE, equine serum)	Ki′ (uncompetitive inhibition) [1, 3]	Ki [1, 4]	Ki [1, 5]	selectivity F (percent inhibition for AChE divided by percent inhibition for BChE) [1]	Type of Inhibition ([2]; AChE, electric eel)	Ki' (uncompetitive inhibition) ([2]; AChE, electric eel, mean ± SE)	Ki ([2]; read-out: Ki (competitive inhibition), AChE, electric eel, mean ± SE)
CC(=O)OC1CC2(C)C(CCC3(C)C2CC=C2C4CC(C)(C)CCC4(C(=O)NCCN)CCC23C)C(C)(C)C1OC(C)=O (stereo not drawn) [Compound 13, (2α,3β)-N-(2-Aminoethyl)-2,3-diacetyloxy-olean-12-en-28-amide]	40.83 ± 0.21%	31.91 ± 0.32%	–	–	–	–	–	–	–	–	–	–
C=C(C)C1CC[C@]2(C(=O)NCCN3CCCCC3)CC[C@]3(C)C(CCC4[C@@]5(C)CC[C@H](OC(C)=O)C(C)(C)C5CC[C@]43C)C12 (stereo partly drawn) [Compound 44]	–	–	33.83 ± 0.43%	22.78 ± 0.85%	–	–	–	–	–	–	–	–
CC1(C)CCC2(C(=O)NCCN)CCC3(C)C(=CCC4C5(C)CC(O)C(O)C(C)(C)C5CCC43C)C2C1 (stereo not drawn) [Compound 18, (2α,3β)-N-(2-Aminoethyl)-2,3-dihydroxy-olean-12-en-28-amide]	–	–	68.83 ± 1.57%	39.15 ± 0.16%	–	–	–	–	–	–	–	–
C=C(C)C1CC[C@]2(C(=O)NCCN3CCCC3)CC[C@]3(C)C(CCC4[C@@]5(C)CC[C@H](O)C(C)(C)C5CC[C@]43C)C12 (stereo partly drawn) [Compound 39]	–	–	60.48 ± 0.05%	58.81 ± 0.80%	mixed-type	> 9000 nM	3240 ± 580 nM	–	–	–	–	–
CC(=O)OC1CCC2(C)C(CCC3(C)C2CC=C2C4CC(C)(C)CCC4(C(=O)NCCN4CCCCC4)CCC23C)C1(C)C (stereo not drawn) [Compound 42, (3β)-N-(2-Piperidin-1-ylethyl)-3-acetyloxy-olean-12-en-28-amide]	–	–	53.09 ± 0.14%	45.57 ± 0.25%	–	–	–	–	–	–	–	–
CC(=O)O[C@H]1CC[C@]2(C)[C@H]3CC[C@@H]4[C@H]5[C@H](C(C)=O)CC[C@]5(C(=O)NCCN5CCCC5)CC[C@@]4(C)[C@]3(C)CC[C@H]2C1(C)C [Compound 35, (3β)-N-(2-pyrrolidin-1-ylethyl)-3-acetyloxy-20-oxo-30-norlupan-28-amide]	–	–	94.60 ± 0.02%	19.97 ± 0.13%	mixed-type	2380 ± 480 nM	70 ± 10 nM	70 nM	≈ 0.21	–	–	–
C=C(C)C1CC[C@]2(C(=O)NCCN3CCCC3)CC[C@]3(C)C(CCC4[C@@]5(C)CC[C@H](OC(C)=O)C(C)(C)C5CC[C@]43C)C12 (stereo partly drawn) [Compound 34]	71.56 ± 0.54%	44.15 ± 0.32%	–	–	mixed-type	> 5000 nM	390 ± 40 nM	390 nM	–	–	–	–
CC1(C)CCC2(C(=O)NCCN3CCCC3)CCC3(C)C(=CCC4C5(C)CCC(O)C(C)(C)C5CCC43C)C2C1 (stereo not drawn) [Compound 37, (3β)-N-(2-Pyrrolidin-1-ylethyl)-3-hydroxy-olean-12-en-28-amide]	74.50 ± 0.93%	10.04 ± 1.70%	–	–	mixed-type	> 50000 nM	550 ± 20 nM	–	–	–	–	–
CN(C)CCNC(=O)C12CCC(C)(C)CC1C1=CCC3C4(C)CCC(O)C(C)(C)C4CCC3(C)C1(C)CC2 (stereo not drawn) [Compound 27, (3β)-N-[2-(Dimethylamino)-ethyl]-3-hydroxy-olean-12-en-28-amide]	67.10 ± 0.07%	5.54 ± 0.07%	–	–	mixed-type	9070 ± 20 nM	1310 ± 10 nM	–	0.08	–	–	–
CC(=O)[C@@H]1CC[C@]2(C(=O)NCCN3CCCC3)CC[C@]3(C)[C@H](CC[C@@H]4[C@@]5(C)CC[C@H](O)C(C)(C)[C@@H]5CC[C@]43C)[C@@H]12 [Compound 40]	–	–	89.15 ± 0.44%	33.06 ± 0.45%	mixed-type	> 10000 nM	450 ± 10 nM	–	–	mixed-type	23630 ± 390 nM	28000 ± 2990 nM
